Test results reported in patent US6498163B1, “Pyrido[2,3-D]pyrimidines and 4-aminopyrimidines as inhibitors of cellular proliferation” (Warner-Lambert Company, priority 1997, dated 2002).
Structures can show the parent of a compound that is named as a salt. Where two headings read alike, the source gives them in different places.

Tests used:
[1] = target: cdk4/D (Homo sapiens, UniProt P11802); test: Cyclin-dependent kinase 4 (cdk4) assay; assay type: biochemical; conditions: for cdk4/D % inhibition at 40 μM: Table 2
cdk4/D, sequence (P11802 whole entry, species assumed): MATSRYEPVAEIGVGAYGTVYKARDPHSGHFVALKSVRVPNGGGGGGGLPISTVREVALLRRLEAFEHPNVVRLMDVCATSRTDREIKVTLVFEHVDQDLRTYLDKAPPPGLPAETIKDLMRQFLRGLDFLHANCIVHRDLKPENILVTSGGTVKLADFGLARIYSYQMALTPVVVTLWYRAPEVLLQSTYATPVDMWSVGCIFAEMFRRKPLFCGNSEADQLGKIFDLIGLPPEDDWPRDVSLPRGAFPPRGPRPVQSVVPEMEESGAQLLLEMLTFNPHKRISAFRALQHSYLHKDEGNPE
cdk4/D, sequence (P24385 whole entry partner, species assumed): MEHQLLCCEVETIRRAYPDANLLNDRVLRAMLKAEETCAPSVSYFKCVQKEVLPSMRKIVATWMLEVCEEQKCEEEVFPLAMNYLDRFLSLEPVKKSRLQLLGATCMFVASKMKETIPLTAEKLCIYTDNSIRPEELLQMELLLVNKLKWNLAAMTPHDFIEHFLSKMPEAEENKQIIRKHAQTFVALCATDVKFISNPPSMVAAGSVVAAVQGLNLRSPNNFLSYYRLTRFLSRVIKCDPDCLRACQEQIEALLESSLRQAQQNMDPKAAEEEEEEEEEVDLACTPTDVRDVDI
Method: As noted above, the compounds of this invention are potent inhibitors of cyclin-dependent kinases, and accordingly, are useful in treating and preventing atherosclerosis, and other cell proliferative disorders like cancer. […] A typical assay, for instance, measures inhibitory activity against the cyclin D dependent kinase 4 enzyme (cdk4/D). […] The cdk 4 assay was carried out as follows.
Cyclin-Dependent Kinase 4 (cdk4) Assay
The total volume was 0.1 mL containing a final concentration of 20 mM TRIS (tris[hydroxymethyl]aminomethane), at pH 7.4, 50 mM NaCl, 1 mM dithiothreitol, 10 mM MgCl2, 25 μM ATP containing 0.25 μCi of [^32P]ATP, 20 ng of cdk4, 1 μg of retinoblastoma, and appropriate dilutions of a compound of the present invention. All components except the ATP were added to the wells, and the plate was placed on a plate mixer for 2 minutes. The reaction was started by adding [^32P]ATP and the plate was incubated at 25° C. for 15 minutes. The reaction was terminated by addition of 0.1 mL of 20% trichloroacetic acid (TCA). The plate was kept at 4° C. for at least 1 hour to allow the substrate to precipitate. The wells were then washed five times with 0.2 mL of 10% TCA and ^32P incorporation was determined with a beta plate counter (Wallac Inc., Gaithersburg, Md.).

[2] = target: cdc2/cyclinB (Homo sapiens, UniProt P06493); test: Cyclin-dependent kinase assay cdc2/cyclinB (cdk1/B); assay type: biochemical; conditions: Table 1
cdc2/cyclinB, sequence (P06493 whole entry, species assumed): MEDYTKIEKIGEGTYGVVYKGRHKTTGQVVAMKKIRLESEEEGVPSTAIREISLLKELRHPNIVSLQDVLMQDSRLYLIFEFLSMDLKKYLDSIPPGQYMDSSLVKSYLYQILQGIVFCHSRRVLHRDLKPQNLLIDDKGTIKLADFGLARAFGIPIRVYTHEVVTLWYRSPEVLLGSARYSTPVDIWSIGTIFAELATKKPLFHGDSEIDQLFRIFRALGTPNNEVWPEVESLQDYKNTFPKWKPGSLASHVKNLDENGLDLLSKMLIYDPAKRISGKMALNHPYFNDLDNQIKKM
cdc2/cyclinB, sequence (P14635 whole entry partner, species assumed): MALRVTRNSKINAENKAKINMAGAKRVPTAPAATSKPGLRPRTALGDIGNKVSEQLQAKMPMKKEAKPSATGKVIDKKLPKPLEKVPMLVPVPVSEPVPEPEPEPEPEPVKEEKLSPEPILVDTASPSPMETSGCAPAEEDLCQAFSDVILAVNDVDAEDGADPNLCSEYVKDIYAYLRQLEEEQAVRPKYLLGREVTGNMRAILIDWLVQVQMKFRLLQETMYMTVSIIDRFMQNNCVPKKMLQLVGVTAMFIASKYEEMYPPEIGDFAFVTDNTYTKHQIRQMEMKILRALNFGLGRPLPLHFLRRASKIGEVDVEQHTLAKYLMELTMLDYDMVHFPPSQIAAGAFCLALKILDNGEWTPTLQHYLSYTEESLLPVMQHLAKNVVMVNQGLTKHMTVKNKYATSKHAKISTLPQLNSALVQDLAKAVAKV

[3] = target: T1, PDGF-β receptor tyrosine kinase (Mus musculus, UniProt P05622); test: PDGF receptor tyrosine kinase assay; assay type: biochemical; conditions: Table 4, Formula II compound
T1 construct: amplify a fragment of DNA that codes for the intracellular tyrosine kinase domain; made in house; host or cells: SF9 insect cells (baculovirus)
T1 sequence (P05622 599-961 limits assumed): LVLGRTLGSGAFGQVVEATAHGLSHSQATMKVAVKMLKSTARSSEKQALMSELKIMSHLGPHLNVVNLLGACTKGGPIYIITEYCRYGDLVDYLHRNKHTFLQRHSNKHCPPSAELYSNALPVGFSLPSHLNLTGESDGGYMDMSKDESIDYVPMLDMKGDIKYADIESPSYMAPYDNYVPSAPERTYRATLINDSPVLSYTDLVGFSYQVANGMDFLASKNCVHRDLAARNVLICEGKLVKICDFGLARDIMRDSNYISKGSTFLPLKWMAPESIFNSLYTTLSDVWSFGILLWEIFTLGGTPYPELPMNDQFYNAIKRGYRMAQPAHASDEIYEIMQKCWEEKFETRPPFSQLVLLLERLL
Method: (§1) The compounds of Formulas I and II also have shown good inhibitory activity against certain growth factor receptor tyrosine kinase enzymes, including fibroblast growth factor (FGF) and platelet derived growth factor (PDGF). […] The invention compounds range in IC50 inhibition against FGF tyrosine kinase generally from about 0.004 to about 40 μM. […] The assays used to determine these activities were carried out as follows:
(§2) PDGF and EGF Receptor Tyrosine Kinase Assays
(§3) Full-length cDNAs for the mouse PDGF-β and human FGF-1 (flg) receptor tyrosine kinases were obtained from J. Escobedo and prepared as described in J. Biol. Chem., 1991;262:1482-1487. PCR primers were designed to amplify a fragment of DNA that codes for the intracellular tyrosine kinase domain. The fragment was inserted into a baculovirus vector, cotransfected with AcMNPV DNA, and the recombinant virus isolated. SF9 insect cells were infected with the virus to overexpress the protein, and the cell lysate was used for the assay. […] Filters were washed three times with 15% TCA containing 100 mM sodium pyrophosphate, and the radioactivity retained on the filters counted in a Wallac 1250 Betaplate reader. Nonspecific activity was defined as radioactivity retained on the filters following incubation of samples with buffer alone (no enzyme). […]

[4] = target: T2, FGF-1 (flg) receptor tyrosine kinase (Homo sapiens, UniProt P11362); test: FGF receptor tyrosine kinase assay; assay type: biochemical; conditions: Table 4, Formula II compound
T2 construct: amplify a fragment of DNA that codes for the intracellular tyrosine kinase domain; made in house; host or cells: SF9 insect cells (baculovirus)
T2 sequence (P11362 478-767 limits assumed): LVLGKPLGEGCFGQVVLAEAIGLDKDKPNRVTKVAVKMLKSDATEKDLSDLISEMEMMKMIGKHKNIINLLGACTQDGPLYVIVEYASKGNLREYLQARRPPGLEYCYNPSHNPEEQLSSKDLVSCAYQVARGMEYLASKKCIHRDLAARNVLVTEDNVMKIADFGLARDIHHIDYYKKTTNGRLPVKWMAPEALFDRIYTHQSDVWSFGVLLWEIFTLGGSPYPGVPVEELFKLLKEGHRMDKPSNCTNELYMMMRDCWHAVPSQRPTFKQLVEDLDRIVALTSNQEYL
Method: as §1, §2, §3

[5] = Plasma levels in mice after dosing; assay type: in vivo, nude mice; conditions: intraperitoneally at 12 mg/kg, at 30 minutes following dosing
Method: For example, the compound of Example 60 was administered orally at 5 mg/kg to mice, and plasma levels of about 200 nM were measured at 30 minutes following dosing. The compound was also administered intraperitoneally at 12 mg/kg and produced a peak plasma concentration of 10,000 nM at 30 minutes following dosing.

[6] = tested on: MCF-7 human mammary tumor xenografts; test: MCF-7 human mammary tumor xenograft; assay type: in vivo, female nude mice; conditions: 5 to 20 mg/kg, q12 h×2; days 1-14, subcutaneous MCF-7 xenografts
[7] = Table 2, Formula II compounds, read-out: cdk4/IC50 IC50

| Molecule | melting point | other results |
| --- | --- | --- |
| O=c1ccc2cnc(Nc3ccccc3)nc2n1CCCOCc1ccccc1 [Example 38, 8-(3-Benzyloxypropyl)-2-phenylamino-8H-pyrido[2,3-d]pyrimidin-7-one] |  | IC50 ([1]; Table 1, read-out: cdk4/D IC50): 2.69 µM; IC50 [2]: 29.8 µM |
| O=c1ccc2cnc(Nc3ccc(N4CCCCC4)cc3)nc2n1C1CC2CCC1C2 (stereo not drawn) [Example 229, 8-Bicyclo[2.2.1]hept-2-yl-2-(4-piperidin-1-yl-phenylamino)-8H-pyrido[2,3-d]pyrimidin-7-one] | 209 °C |  |
| CCn1c(=O)ccc2cnc(NC(C)C)nc21 (as salt: sulfate) [Example 47, 8-Ethyl-2-isopropylamino-8H-pyrido[2,3-d]pyrimidin-7-one] | 119 to 120 °C |  |
| CCC(CC)n1c(=O)ccc2cnc(Nc3ccc(N4CCN(C)CC4)cc3)nc21 [Example 77, 8-(1-Ethylpropyl)-2-[4-(4-methylpiperazin-1-yl)-phenylamino]-8H-pyrido[2,3-d]pyrimidin-7-one] | 155 to 157 °C |  |
| 3-(4-Ethylamino-2-phenylamino-pyrimidin-5-yl)-but-2-enoic acid ethyl ester [Example 73] |  | cdk4/D % inhibition at 40 μM [1]: 58% |
| CCCCn1c(=O)ccc2cnc(Nc3ccccc3)nc21 [Example 40, 8-Butyl-2-phenylamino-8H-pyrido[2,3-d]pyrimidin-7-one] | 183 to 184 °C |  |
| O=c1ccc2cnc(Nc3ccccc3)nc2n1-c1ccccc1 [Example 101, 2-Phenylamino-8-phenyl-8H-pyrido[2,3-]pyrimidin-7-one] | 300 to 302 °C |  |
| CCNc1nc(Nc2ccccc2)ncc1/C=C/C(=O)OCC [Example 17, Ethyl 3-(4-Ethylamino-2-phenylamino-pyrimidin-5-yl)acrylate] | 125 to 126 °C | IC50 [1, 7]: 2 µM; IC50 [3]: 3.7 µM; IC50 [4]: 4.5 µM |
| CCn1c(=O)c(C)cc2cnc(Nc3ccc(N4CCC(CCCN5CCOCC5)CC4)cc3)nc21 [Example 264, 8-Ethyl-6-methyl-2-{4-[4-(3-morpholin-4-yl-propyl)-piperidin-1-yl]-phenylamino}-8H-pyrido[2,3-d]pyrimidin-7-one] | 199 to 200 °C |  |
| O=c1ccc2cnc(Nc3ccc(N4CCCCC4)cc3)nc2n1C1CC2CCC1C2 (stereo not drawn) [Example 181, 8-Bicyclo[2.2.1]hept-2-yl-2-(4-piperidin-1-yl-phenylamino)-8H-pyrido[2,3-d]pyrimidin-7-one] | 243 to 244 °C |  |
| CN(C)CCCN1CCN(c2ccc(Nc3ncc4ccc(=O)n(C5CCCCC5)c4n3)cc2)CC1 [Example 144, 8-Cyclohexyl-2-{4-[4-(3-dimethylamino-propyl)-piperazin-1-yl]-phenylamino}-8H-pyrido[2,3-d]pyrimidin-7-one] | 169 to 170 °C |  |
| CC(C)n1c(=O)ccc2cnc(Nc3ccc(N4CCN(C)CC4)cc3)nc21 [Example 60, 8-Isopropyl-2-[4-(4-methylpiperazin-1-yl)-phenylamino]-8H-pyrido[2,3-d]pyrimidin-7-one] |  | peak plasma concentration [5]: 10,000 nM; tumor growth inhibition [6]: statistically insignificant tumor growth inhibitions |
| O=c1ccc2cnc(Nc3ccc(SC(F)(F)F)cc3)nc2n1C1CC2CCC1C2 (stereo not drawn) [Example 221, 8-Bicyclo[2.2.1]hept-2-yl-2-(4-trifluoromethylsulfanyl-phenylamino)-8H-pyrido[2,3-d]pyrimidin-7-one] | 205 to 206 °C |  |
| O=c1ccc2cnc(Nc3ccc(N4CCCCC4)cc3)nc2n1C1CCCCCC1 [Example 163, 8-Cycloheptyl-2-(4-piperidin-1-yl-phenylamino)-8H-pyrido[2,3-d]pyrimidin-7-one] | 201 to 202 °C |  |
| 3-(4-Ethylamino-2-phenylamino-pyrimidin-5yl)acrylonitrile [Example 72] |  | cdk4/D % inhibition at 40 μM [1]: 18% |
| CC(C)Nc1ncc2ccc(=O)n(C)c2n1 [Example 67, 2-Isopropylamino-8-methyl-8H-pyrido[2,3-d]pyrimidin-7-one] | 148 to 149 °C |  |
| CN1CCN(c2ccc(Nc3ncc4ccc(=O)n(CCOCc5ccccc5)c4n3)cc2)CC1 [Example 140, 8-(2-Benzyloxy-ethyl)-2-[4-(4-methyl-piperazin-1-yl)-phenylamino]-8H-pyrido[2,3-d]pyrimidin-7-one] | 183 to 185 °C |  |
| O=c1ccc2cnc(NCCN3CCCCC3)nc2n1C1CCCCC1 [Example 165, 8-Cyclohexyl-2-(2-piperidin-1-yl-ethylamino)-8H-pyrido[2,3-d]pyrimidin-7-one] | 156 to 157 °C |  |
| O=c1ccc2cnc(Nc3ccc(N4CCCC(CO)C4)cc3)nc2n1C1CCCCC1 (stereo not drawn) [Example 185, 8-Cyclohexyl-2-[4-(3-hydroxymethyl-piperidin-1-yl)-phenylamino]-8H-pyrido[2,3-d]pyrimidin-7-one] | 194 to 195 °C |  |
| CN(C)c1ccc(Nc2ncc3ccc(=O)n(C4CCCCC4)c3n2)cc1 [Example 147, 8-Cyclohexyl-2-(4-dimethylamino-phenylamino)-8H-pyrido[2,3-d]pyrimidin-7-one] |  | IC50 ([1]; Table 1, read-out: cdk4/D IC50): 0.48 µM; IC50 [2]: 0.089 µM |
| O=c1ccc2cnc(NCc3ccccc3)nc2n1C1CCCCC1 [Example 222, 2-Benzylamino-8-cyclohexyl-8H-pyrido[2,3-d]pyrimidin-7-one] | 183 to 184 °C |  |
| O=c1ccc2cnc(NCCCN3CCCCC3)nc2n1C1CCCCC1 [Example 166, 8-Cyclohexyl-2-(3-piperidin-1-yl-propylamino)-8H-pyrido[2,3-d]pyrimidin-7-one] | 111 to 112 °C |  |
| CCn1c(=O)c(C)cc2cnc(Nc3ccc(N4CCN(C)CC4)cc3)nc21 [Example 84] |  | IC50 ([1]; Table 1, read-out: cdk4/D IC50): 0.18 µM |
| CCOC(=O)/C=C/c1cnc(Nc2ccccc2)nc1N [Example 28, Ethyl 3-(4-Amino-2-phenylamino-pyrimidin-5-yl)acrylate] | 190 to 192 °C | IC50 [1, 7]: 65 µM |
| COc1ccc(CNc2ncc3ccc(=O)n(C(C)C)c3n2)cc1OC [Example 256, 2-(3,4-Dimethoxy-benzylamino)-8-isopropyl-8H-pyrido[2,3-d]pyrimidin-7-one] | 128 °C |  |
| CCOC(=O)C1CCN(c2ccc(Nc3ncc4ccc(=O)n(C5CCCCC5)c4n3)cc2)CC1 [Example 164, 1-[4-(8-Cyclohexyl-7-oxo-7,8-dihydro-pyrido[2,3-d]pyrimidin-2-ylamino)-phenyl]-piperidine-4-carboxylic acid ethyl ester] | 174 to 175 °C |  |
